From PMC4422947 (Acta Pharmacologica Sinica, 2015)

Legend:
[1] = target: T1, CYP2A6 (Homo sapiens, UniProt P11509); experiment: Inhibition of cDNA-expressed human CYP2A6; format: in vitro ADME; conditions: CYP2A6, coumarin 7-hydroxylation
T1 sequence (P11509 1-494): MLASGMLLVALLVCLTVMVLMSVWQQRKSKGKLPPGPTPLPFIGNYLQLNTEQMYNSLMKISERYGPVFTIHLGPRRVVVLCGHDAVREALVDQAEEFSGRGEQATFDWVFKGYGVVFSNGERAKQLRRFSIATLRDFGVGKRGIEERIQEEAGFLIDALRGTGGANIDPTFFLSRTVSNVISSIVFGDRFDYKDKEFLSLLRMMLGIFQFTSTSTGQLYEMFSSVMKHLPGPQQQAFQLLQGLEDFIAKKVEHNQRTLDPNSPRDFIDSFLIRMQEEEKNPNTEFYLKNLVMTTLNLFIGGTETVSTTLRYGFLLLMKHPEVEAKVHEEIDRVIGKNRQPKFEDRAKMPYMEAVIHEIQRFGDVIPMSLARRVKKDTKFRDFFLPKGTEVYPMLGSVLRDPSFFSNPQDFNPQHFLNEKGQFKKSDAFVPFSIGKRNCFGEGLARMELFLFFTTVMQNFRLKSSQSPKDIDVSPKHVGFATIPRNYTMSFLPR

[2] = target: T2, CYP2B6 (Homo sapiens, UniProt P20813); experiment: Inhibition of cDNA-expressed human CYP2B6; format: in vitro ADME; conditions: CYP2B6, 7-ethoxy-4-trifluoromethylcoumarin O-deethylation
T2 sequence (P20813 1-491): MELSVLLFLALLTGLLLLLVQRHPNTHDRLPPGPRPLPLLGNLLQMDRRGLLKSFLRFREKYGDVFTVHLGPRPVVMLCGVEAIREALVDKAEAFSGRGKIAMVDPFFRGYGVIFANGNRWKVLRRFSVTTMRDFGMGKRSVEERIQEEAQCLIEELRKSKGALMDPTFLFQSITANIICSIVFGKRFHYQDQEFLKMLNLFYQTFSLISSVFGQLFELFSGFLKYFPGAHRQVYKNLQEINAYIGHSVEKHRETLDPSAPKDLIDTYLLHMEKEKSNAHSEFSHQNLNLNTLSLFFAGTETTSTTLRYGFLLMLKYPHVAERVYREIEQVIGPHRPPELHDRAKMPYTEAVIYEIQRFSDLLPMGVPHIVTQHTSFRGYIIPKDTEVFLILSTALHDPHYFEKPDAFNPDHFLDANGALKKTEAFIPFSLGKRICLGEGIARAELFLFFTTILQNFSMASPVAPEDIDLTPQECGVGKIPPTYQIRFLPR

[3] = format: in vivo, rat; conditions: after iv or po administration of tanshinol; data not shown

Detection in rat samples [3] | Compound | IC50 [1] | IC50 [2]
– | N[C@@H]1C[C@H]1c1ccccc1 (racemic) [tranylcypromine] | 70 nM | 5900 nM
not detected | 8-O-methyltanshinol | – | –
not detected | COC(=O)C(O)Cc1ccc(O)c(O)c1 (stereo not shown) [tanshinol methyl ester] | – | –
